Values quoted from earlier work in patent publication US12691080B2, “Fenretinide formulations, systems incorporating same, and methods for their use” (ARx, LLC, priority 2024, dated 2026).
≈ marks a conversion by molar mass, not a printed value.

Columns and labels:
[1] = pH 6.5

SMILES: CC1=C(/C=C/C(C)=C/C=C/C(C)=C/C(=O)Nc2ccc(O)cc2)C(C)(C)CCC1 [fenretinide, N-(4-hydroxyphenyl)retinamide]
- epithelial proliferation (Ki-67 indices) (oral epithelium; epithelium with higher fenretinide levels (>5 μM)): significantly reduced
- transglutaminase 1 levels (oral epithelium; fenretinide levels lower than 5 μM): increased levels
- Phase II enzyme UGT1A1 (oral epithelium; lower fenretinide levels): increase
- systemically detectable drug (oral epithelium; oral mucosal patch delivery): absence of any systemically detectable drug
- solubility in water [1]: 0.013 µM (≈ 5.09 ng/mL)
